Values of other authors in paper PMC5731934, “Modifying glycyrrhetinic acid liposomes with liver-targeting ligand of galactosylated derivative: preparation and evaluations” (Oncotarget, 2017).

Set-up: method as in PMID 11752037

solubility in water: < 10 µg/mL
SMILES: CC1(C)[C@@H](O)CC[C@]2(C)[C@H]3C(=O)C=C4[C@@H]5C[C@@](C)(C(=O)O)CC[C@]5(C)CC[C@@]4(C)[C@]3(C)CC[C@@H]12 [GA, Glycyrrhetinic acid]
